The values below come from paper PMC6264278, “Corydaline Inhibits Multiple Cytochrome P450 and UDP-Glucuronosyltransferase Enzyme Activities in Human Liver Microsomes” (Molecules, 2011).

As usually defined, the Ki is a measure of affinity in units of concentration, obtained from inhibition or displacement. Low readings indicate tighter binding, high ones weaker binding. What is called IC50 is the concentration at which inhibition is half-maximal. For orientation: kinact means the maximal first-order rate at which the target is inactivated.

The structures appear in SMILES notation. Read-outs that look alike come from different tables or passages of the source.

Common to all, as to format: in vitro ADME
The target in one data set is T1, CYP2C8 (Homo sapiens, UniProt P10632).
T1 construct: using pooled human liver microsomes; tissue BD Gentest Co. H161; host or cells: pooled human liver microsomes
T1 sequence (P10632 1-490): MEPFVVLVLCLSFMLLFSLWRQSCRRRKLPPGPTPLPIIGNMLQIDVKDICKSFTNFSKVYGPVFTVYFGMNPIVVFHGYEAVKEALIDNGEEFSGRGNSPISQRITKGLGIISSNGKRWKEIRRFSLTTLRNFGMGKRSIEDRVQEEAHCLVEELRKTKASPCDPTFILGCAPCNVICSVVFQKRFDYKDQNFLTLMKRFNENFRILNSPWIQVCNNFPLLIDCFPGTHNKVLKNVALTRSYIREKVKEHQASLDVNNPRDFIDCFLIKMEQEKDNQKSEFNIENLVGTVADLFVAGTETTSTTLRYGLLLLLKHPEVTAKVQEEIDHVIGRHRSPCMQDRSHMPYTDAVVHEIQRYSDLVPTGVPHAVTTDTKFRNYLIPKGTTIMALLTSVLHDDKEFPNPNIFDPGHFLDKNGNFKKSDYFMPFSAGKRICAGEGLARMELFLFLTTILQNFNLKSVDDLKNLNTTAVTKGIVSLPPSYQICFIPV
In words: CYP2C8 amodiaquine N-deethylation inhibition, cocktail assay in pooled human liver microsomes. Conditions: 2.5 μM amodiaquine, no inhibition at 200 μM of corydaline; for IC50 no preincubation, CYP2C8 amodiaquine N-deethylation: pooled human liver microsomes (H161). How it is done:
(§1) Phenacetin O-deethylase, coumarin 7-hydroxylase, amodiaquine N-deethylase, diclofenac 4-hydroxylase, S-mephenytoin 4-hydroxylase, bufuralol hydroxylase, and midazolam 1’-hydroxylase activities were determined as probe activities for CYP1A2, CYP2A6, CYP2C8, CYP2C9, CYP2C19, CYP2D6, and CYP3A4, respectively, using cocktail incubation and liquid chromatography-tandem mass spectrometry (LC/MS/MS). The incubation mixtures were prepared in a total volume of 200 μL, as follows: pooled human liver microsomes (0.25 mg/mL), 1.3 mM NADPH, 3.3 mM MgCl2, 50 mM potassium phosphate buffer (pH 7.4), and a cocktail of probe substrates and various concentrations of corydaline (1−200 μM). The substrates were used at concentrations approximately equal to their respective Km values: 50 μM phenacetin, 2.5 μM coumarin, 2.5 μM amodiaquine, 10 μM diclofenac, 100 μM S-mephenytoin, 5 μM bufuralol, and 2.5 μM midazolam. After a 3-min pre-incubation period at 37 °C, the reactions were initiated by addition of an NADP generating system and incubated for 20 min at 37 °C in a shaking water bath. After incubation, the reaction was stopped by placement of the tubes on ice and addition of 100 μL of ice-cold methanol containing internal standards (^13C2,^15N-acetaminophen for acetaminophen and N-desethylamodiaquine, d5-7-hydroxycoumarin for 7-hydroxycoumarin, ^13C6-4-hydroxydiclofenac for 4-hydroxydiclofenac, d3-4-hydroxy-mephenytoin for 4-hydroxymephenytoin and hydroxymidazolam, d9-1-hydroxybufuralol for 1-hydroxybufuralol). The incubation mixtures were then centrifuged at 13,000 × g for 5 min. All incubations were performed in triplicate and the mean values were used. […] The reaction was started by addition of a cocktail of CYP probe substrates.
All 7 metabolites produced from the cocktail of CYP isoform-specific substrates were simultaneously determined by LC/MS/MS [25]. […] Quantification was performed by selected reaction monitoring (SRM) of the [M+H]^+ ion and the related product ion for each metabolite. […]
A general note: Liver microsomes are a subcellular fraction often used to study metabolism.

The target in the next data set is T2, CYP2C19 (Homo sapiens, UniProt P33261).
T2 construct: using pooled human liver microsomes; tissue BD Gentest Co. H161; host or cells: pooled human liver microsomes
In words: CYP2C19 S-mephenytoin 4'-hydroxylation inhibition in pooled human liver microsomes. Conditions: for IC50: 100 μM S-mephenytoin, mean ± SD, n = 3. The method, then:
as §1
All 7 metabolites produced from the cocktail of CYP isoform-specific substrates were simultaneously determined by LC/MS/MS [25]. The system consisted of a tandem quadrupole mass spectrometer (TSQ Quantum Access, ThermoFisher Scientific, San Jose, CA, USA) coupled with a Nanospace SI-2 LC system. […] Quantification was performed by selected reaction monitoring (SRM) of the [M+H]^+ ion and the related product ion for each metabolite. […]
Reactions were initiated by addition of NADPH at 37 °C and stopped after 15 min by placement of the incubation tubes on ice and addition of ice-cold methanol (100 μL) containing an internal standard (2.0 μg/mL ^13C6-4-hydroxydiclofenac for diclofenac, 0.5 μg/mL d3-4-hydroxymephenytoin for mephenytoin, or 0.5 μg/mL d9-1-hydroxy-bufuralol for bufuralol). The incubation mixtures were centrifuged at 13,000 × g for 5 min, and aliquots (5 μL) of the supernatants were analyzed by LC/MS/MS. […] Aliquots (5 μL) were analyzed by LC/MS/MS. […]

The subject of a further data set is CYP3A. In words: Time- and concentration-dependent inactivation of CYP3A-mediated midazolam hydroxylation in human liver microsomes. The settings on record: probe midazolam (1'-hydroxylation), estimated from kobs vs corydaline concentration (10-150 μM). How it is done:
The inhibitory effects of corydaline toward seven major human CYP isoforms and four major human UGT isoforms were evaluated using cocktail CYP probe substrates and each UGT probe substrate in human liver microsomes, respectively. […] To determine whether midazolam metabolism is inhibited by corydaline, we performed time- and concentration-dependent inactivation assays in human liver microsomes. […] Values for kobs were plotted against corydaline concentration and used for estimation of maximal rates (kinact) and Ki values in human liver microsomes (Figure 2b).

T2 sequence (P33261 whole entry): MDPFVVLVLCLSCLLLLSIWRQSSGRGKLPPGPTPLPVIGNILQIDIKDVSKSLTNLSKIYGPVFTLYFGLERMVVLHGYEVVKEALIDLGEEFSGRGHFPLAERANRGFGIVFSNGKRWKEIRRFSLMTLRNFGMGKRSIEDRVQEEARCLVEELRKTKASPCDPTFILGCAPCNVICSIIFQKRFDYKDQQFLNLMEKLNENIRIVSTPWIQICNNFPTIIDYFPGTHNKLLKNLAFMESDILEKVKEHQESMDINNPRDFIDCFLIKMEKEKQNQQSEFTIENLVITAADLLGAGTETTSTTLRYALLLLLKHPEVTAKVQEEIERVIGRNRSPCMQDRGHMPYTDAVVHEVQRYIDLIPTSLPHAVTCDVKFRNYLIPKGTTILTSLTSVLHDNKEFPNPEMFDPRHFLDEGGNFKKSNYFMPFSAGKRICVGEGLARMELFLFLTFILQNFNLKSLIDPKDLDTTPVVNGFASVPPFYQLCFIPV

As to `COc1cc2c(cc1OC)C1C(C)c3ccc(OC)c(OC)c3CN1CC2` (stereo not drawn) [Corydaline, 2,3,9,10-tetramethoxy-13-methyl-5,8,13,13a-tetrahydro-6H-isoquino[3,2-a]isoquinoline], the “IC50 no preincubation, CYP2C8 amodiaquine N-deethylation” value against CYP2C8 was “negligible inhibition”; against CYP2C8 (listed as corydaline) it was “No inhibition **”. Further, the “IC50 with preincubation, CYP2C8 amodiaquine N-deethylation” value against CYP2C8 (pre-incubated 30 min with NADPH) was “No inhibition **”. In addition, the “inhibition mode, CYP2C19 S-mephenytoin 4'-hydroxylation” value against CYP2C19 (Lineweaver, Dixon and secondary reciprocal plots) is reported as “competitive”. At CYP2C19 (human liver microsomes, 10-40 μM S-mephenytoin), the inhibition constant (Ki) was determined as 1.7 ± 0.5 µM. Also, the half-maximal inhibitory concentration (IC50) at CYP2C19 (pooled human liver microsomes (H161), read-out: IC50 no preincubation, CYP2C19 S-mephenytoin 4'-hydroxylation) was found to be 11.7 ± 1.4 µM; at CYP2C19 (pre-incubated 30 min with NADPH, read-out: IC50 with preincubation, CYP2C19 S-mephenytoin 4'-hydroxylation), 19.2 ± 1.8 µM. Besides, the KI (inactivation) with CYP3A (read-out: apparent Ki of inactivation, CYP3A midazolam hydroxylation) was 30 µM. In the data set with CYP3A (read-out: maximal rate of inactivation (kinact), CYP3A midazolam hydroxylation (converted)), the kinact was 0.00107 s⁻¹.
